Holding throughout (assay type): functional, organism-based
The species entered for assay [1] is Gallus gallus. As to the kind of experiment: Tested for association constant against pancuronium relaxant in chick biventer muscle preparation.
Assay [2] is filed under the species Gallus gallus. In words: Concentration that produced 50% reversal of pancuronium induced neuromuscular block in the chick biventer assay.
Assay [3] is filed under the species Gallus gallus. In words: Concentration that produced 50% reversal of gallamine induced neuromuscular block in the chick biventer assay.
The species named for assay [4] is Gallus gallus. In words: Tested for association constant against gallamine relaxant in chick biventer muscle preparation.
For assay [5], the species on record is Gallus gallus. As to the kind of experiment: Tested for the reversion of vecuronium-induced block in chick biventer assay.

As usually defined, the EC50 is the concentration needed to bring the measured effect to its halfway point. `O=C(O)c1cc2ccc1OCc1ccc(cc1)COc1ccc(cc1C(=O)O)Cc1ccc(c(C(=O)O)c1)OCc1ccc(cc1)COc1ccc(cc1C(=O)O)C2`: the Ka amounted to 2500 M⁻¹ in the assay listed under Gallus gallus [1] and 3280 M⁻¹ in the assay filed under Gallus gallus [4]. Further, the EC50 in the assay listed under Gallus gallus [2] was 292 µM; in the assay listed under Gallus gallus [3], 563 µM.

Regarding `O=C(O)c1cc2ccc1OCc1ccc3cc(ccc3c1)COc1ccc(cc1C(=O)O)Cc1ccc(c(C(=O)O)c1)OCc1ccc3cc(ccc3c1)COc1ccc(cc1C(=O)O)C2`, the Ka in the assay listed under Gallus gallus [1] stood at 10400 M⁻¹; in the assay filed under Gallus gallus [4], 13200 M⁻¹. Moreover, the figures for the EC50 in the assay filed under Gallus gallus [2] and in the assay listed under Gallus gallus [3] were 40 µM and 104 µM, respectively.

In the case of `O=C(O)c1cc2ccc1OCCCCCOc1ccc(cc1C(=O)O)Cc1ccc(c(C(=O)O)c1)OCCCCCOc1ccc(cc1C(=O)O)C2`, the Ka turned out to be 167 M⁻¹ in the assay filed under Gallus gallus [1] and 608 M⁻¹ in the assay listed under Gallus gallus [4]. Besides, the figures for the EC50 in the assay listed under Gallus gallus [2] and in the assay listed under Gallus gallus [3] were 142 µM and 1030 µM, respectively.

In the assay filed under Gallus gallus [5], `CN(C)C(=O)Oc1cccc([N+](C)(C)C)c1` [NEOSTIGMINE BROMIDE] yielded an EC50 of 0.028 µM.
